The experiment concerns early Delta variant of SARS-CoV-2. The experiment is classed as cell-based.

Regarding `Nc1nnc(Sc2ncc([N+](=O)[O-])s2)s1` [Halicin], the “antiviral effectiveness (virus growth by reverse transcriptase quantitative PCR)” value was “inhibition of virus growth”.

Source of the values: patent US20240353338A1 (priority 2023, published 2024).
